Where “and” joins values, the source holds several entries; their conditions need not be identical. Equal entries are not always repeated. Inconclusive results and toxic doses are left out. Rule as the data show it: active = T/C of 150% or more; inactive = T/C below 125%.
Tested on: L1210 leukemia ip in BDF1 mice, survival T/C
Assay: NCI In Vivo Anticancer Drug Screen. Data for tumor model L1210 Leukemia (intraperitoneal) in B6D2F1 (BDF1) mice
Conditions: endpoint: mean survival time, higher = longer survival
Summary of the method: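 In this screen, tumor-bearing mice given compound are compared to those given vehicle, and their survival values are reported as a treated-to-control quotient.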

[1] = dose: 100.0 mg/kg/injection, schedule: Q01DX001 (ip), vehicle: carboxymethylcellulose (CMC)
[2] = dose: 200.0 mg/kg/injection, schedule: Q01DX001 (ip), vehicle: carboxymethylcellulose (CMC)
[3] = dose: 100.0 mg/kg/injection, schedule: Q04DX003 (ip), vehicle: Klucel (hydroxypropylcellulose) (HPC)
[4] = dose: 400.0 mg/kg/injection, schedule: Q04DX003 (ip), vehicle: Klucel (hydroxypropylcellulose) (HPC)

Measured: T/C

CC(C)OC(=O)Nc1ccc(Cl)cc1
inactive: dose: 100.0 mg/kg/injection, schedule: Q01DX009 (ip), vehicle: saline with Tween-80 94 % of control | dose: 200.0 mg/kg/injection, schedule: Q01DX009 (ip), vehicle: saline with Tween-80 97 % of control | dose: 400.0 mg/kg/injection, schedule: Q01DX009 (ip), vehicle: saline with Tween-80 94 % of control

O=C(Nc1nccs1)Nc1cc(C(F)(F)F)ccc1Cl
inactive: dose: 50.0 mg/kg/injection, schedule: Q01DX001 (ip), vehicle: carboxymethylcellulose (CMC) 103 % of control | dose: 50.0 mg/kg/injection, schedule: Q01DX009 (ip), vehicle: carboxymethylcellulose (CMC) 98 % of control and 109 % of control | dose: 50.0 mg/kg/injection, schedule: Q04DX003 (ip), vehicle: carboxymethylcellulose (CMC) 102 % of control | [1] 97 % of control | dose: 100.0 mg/kg/injection, schedule: Q01DX009 (ip), vehicle: carboxymethylcellulose (CMC) 101 % of control and 88 % of control | dose: 100.0 mg/kg/injection, schedule: Q04DX002 (ip), vehicle: carboxymethylcellulose (CMC) 97 % of control and 101 % of control | dose: 100.0 mg/kg/injection, schedule: Q04DX003 (ip), vehicle: carboxymethylcellulose (CMC) 97 % of control | [2] 98 % of control | dose: 200.0 mg/kg/injection, schedule: Q04DX002 (ip), vehicle: carboxymethylcellulose (CMC) 87 % of control | dose: 200.0 mg/kg/injection, schedule: Q04DX003 (ip), vehicle: carboxymethylcellulose (CMC) 96 % of control

O=S(=O)(Nc1ccccc1)c1ccc(C2CC3(Cl)C(Cl)=C(Cl)C2(Cl)C3(Cl)Cl)cc1 (stereo not drawn)
inactive: dose: 29.0 mg/kg/injection, schedule: Q01DX015 (ip), vehicle: carboxymethylcellulose (CMC) 97 % of control | dose: 44.0 mg/kg/injection, schedule: Q01DX015 (ip), vehicle: carboxymethylcellulose (CMC) 104 % of control | dose: 66.0 mg/kg/injection, schedule: Q01DX015 (ip), vehicle: carboxymethylcellulose (CMC) 95 % of control | dose: 88.8 mg/kg/injection, schedule: Q01DX001 (ip), vehicle: carboxymethylcellulose (CMC) 96 % of control and 100 % of control | [1] 110 % of control | dose: 100.0 mg/kg/injection, schedule: Q01DX009 (ip), vehicle: saline sonified 86 % of control | dose: 100.0 mg/kg/injection, schedule: Q01DX015 (ip), vehicle: carboxymethylcellulose (CMC) 92 % of control | [3] 100 % of control | dose: 133.0 mg/kg/injection, schedule: Q01DX001 (ip), vehicle: carboxymethylcellulose (CMC) 107 % of control | [2] 96 % of control and 100 % of control | dose: 200.0 mg/kg/injection, schedule: Q01DX015 (ip), vehicle: carboxymethylcellulose (CMC) 93 % of control | dose: 200.0 mg/kg/injection, schedule: Q04DX003 (ip), vehicle: Klucel (hydroxypropylcellulose) (HPC) 97 % of control | dose: 300.0 mg/kg/injection, schedule: Q01DX001 (ip), vehicle: carboxymethylcellulose (CMC) 100 % of control and 109 % of control | dose: 400.0 mg/kg/injection, schedule: Q01DX001 (ip), vehicle: carboxymethylcellulose (CMC) 105 % of control | dose: 400.0 mg/kg/injection, schedule: Q01DX009 (ip), vehicle: saline sonified 98 % of control | dose: 400.0 mg/kg/injection, schedule: Q01DX015 (ip), vehicle: carboxymethylcellulose (CMC) 89 % of control | [4] 92 % of control

O=[N+]([O-])c1ccccc1N=N/C(Cc1ccccc1)=N\Nc1ccccc1
inactive: dose: 50.0 mg/kg/injection, schedule: Q01DX009 (ip), vehicle: Klucel (hydroxypropylcellulose) (HPC) 92 % of control | dose: 100.0 mg/kg/injection, schedule: Q01DX009 (ip), vehicle: Klucel (hydroxypropylcellulose) (HPC) 92 % of control | [3] 89 % of control | dose: 200.0 mg/kg/injection, schedule: Q01DX009 (ip), vehicle: Klucel (hydroxypropylcellulose) (HPC) 93 % of control | dose: 400.0 mg/kg/injection, schedule: Q01DX009 (ip), vehicle: Klucel (hydroxypropylcellulose) (HPC) 94 % of control | [4] 92 % of control

O=C1CC2CCC(C1)N2CC1COc2ccccc2O1 (stereo not drawn)
inactive: dose: 100.0 mg/kg/injection, schedule: Q01DX001 (ip), vehicle: saline 100 % of control | dose: 200.0 mg/kg/injection, schedule: Q01DX001 (ip), vehicle: saline 120 % of control
